From US8722649B2, “Alpha-chloro and alpha-bromo phosphonate analogs of lysophosphatidic acid and methods of making and using thereof” (University of Utah Research Foundation, priority 2007, dated 2014)
Read-outs that look alike come from different tables or passages of the source.

How the values were obtained:
[1] = target: T1, human LPA1 (Homo sapiens, UniProt Q92633); assay: Ca2+ mobilization assay, LPA1; type: cell-based; conditions: for EC50: RH7777 cells stably expressing LPA1, agonist mode; for IC50 / Ki: antagonist mode vs 200 nM LPA; for IC50: PA = partial antagonist, read-out: LPA1 IC50; for Ki: read-out: LPA1 (Ki)
T1 construct: expressed in transfected cells
T1 sequence (Q92633 whole entry): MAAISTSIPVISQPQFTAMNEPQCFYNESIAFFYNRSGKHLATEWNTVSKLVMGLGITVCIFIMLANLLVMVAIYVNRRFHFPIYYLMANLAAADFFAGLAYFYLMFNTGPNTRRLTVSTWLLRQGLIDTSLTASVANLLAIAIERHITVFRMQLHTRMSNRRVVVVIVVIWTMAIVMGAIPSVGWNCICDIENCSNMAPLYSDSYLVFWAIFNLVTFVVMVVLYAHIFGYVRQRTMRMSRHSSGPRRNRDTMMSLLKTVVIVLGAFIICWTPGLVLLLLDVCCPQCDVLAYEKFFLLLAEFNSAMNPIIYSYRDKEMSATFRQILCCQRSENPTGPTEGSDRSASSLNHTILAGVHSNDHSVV
Method: (§1) Receptor activation using Ca^2+ mobilization assay for diastereomers of 1 (also represented as 19b). The rat hepatoma (RH7777) cell lines individually expressing either LPA1, LPA2, LPA3 or LPA5 receptors and Chinese hamster ovary (CHO) cell line were analyzed to examine agonism and antagonism. […] CHO cells stably expressing either vector or LPA4 were kindly gifted from Dr. Shimizu (University of Tokyo, Tokyo, Japan).
(§2) Stable transformants of LPA1/2/3 receptors. RH7777 cells stably expressing each receptor were plated onto poly-L-lysine (PLL) (0.1 mg/mL)-coated black-wall clear-bottom 96-well plates (Corning Incorporated Life Sciences, Acton, Mass.) at a density of 5×10^4 cells/well and cultured overnight. The following day, the culture medium was replaced with modified Krebs buffer (120 mM NaCl, 5 mM KCl, 0.62 mM MgSO4, 1.8 mM CaCl2, 10 mM HEPES, 6 mM glucose, pH 7.4), and the cells were serum starved for 6 h. Subsequently, cells were loaded with Fura-2 AM (Invitrogen, Carlsbad, Calif.) for 35 min in modified Krebs buffer containing 2% (v/v) pluronic acid.
(§3) After incubating the cells with Fura-2 AM, the cells were rinsed with Krebs buffer and changes in the intracellular Ca^2+ concentration were monitored by determining the ratio of emitted light intensities at 520 nm in response to excitation at 340 and 380 nm using FLEXstation II (Molecular Devices, Sunnyvale, Calif.). Each well was monitored for 80-120 sec. For testing agonist activity of the compounds, the test compounds were added automatically after 15 sec of baseline measurement. To determine antagonist properties, varying concentrations of the compounds were mixed with a constant concentration of LPA and responses were monitored. Each test was performed in quadruplicate. EC50, IC50, and Ki values were calculated by fitting a sigmoid function to data points with the nonlinear curve-fitting feature of KaleidaGraph (Synergy Software, Essex Junction, Vt.).
Receptor activation using Ca^2+ mobilization assay. The assay for mobilization of intracellular Ca^2+ was performed as described. Briefly, rat hepatoma RH7777 cells stably expressing human LPA1, LPA2, or LPA3, and CHO cells stably expressing LPA4, were loaded with Fura-2 AM (Molecular Probes). Using a FLEXStation (Molecular Devices, Sunnyvale, Calif.), changes in intracellular Ca^2+ concentration were monitored. Ligand-induced changes in fluorescence were monitored for 80-120 seconds. Ca^2+ transients were quantified automatically by calculating the difference between maximum and baseline ratio values for each sample. To determine antagonist properties, different concentrations of each analogue were mixed with either palmitoyl (16:0) or oleoyl (18:1) LPA (200 nM for LPA1 and LPA3, 10 nM for LPA2, and 400 nM for LPA4) (Avanti Polar Lipids, Inc., […], Ala.) and responses were recorded. Each test was performed in quadruplicate. EC50, IC50, and Ki values were calculated as described. The ligand properties of the compounds were evaluated using Ca^2+ mobilization assay for assessing the activation/inhibition of LPA1, LPA2, and LPA3 expressed in RH7777 cells and LPA4 expressed in CHO cells. Table l illustrates calcium responses elicited through the activation of human LPA1, LPA2, LPA3 and LPA4 receptors. These cell lines have been used extensively for the characterization of LPA GPCR ligands because RH7777 cells are intrinsically unresponsive to LPA and CHO cells show minimal endogenous responses to LPA unless transfected with LPA4.

[2] = target: T2, PPARγ (Homo sapiens, UniProt P37231); assay: PPARγ activation assay (PPRE-Acox-Rluc reporter in CV-1 cells); type: cell-based; conditions: 10 μM test analogue, 20 h
T2 construct: expressed in transfected cells; host or cells: CV-1 cells, transient (LipofectAMINE 2000)
T2 sequence (P37231 1-505): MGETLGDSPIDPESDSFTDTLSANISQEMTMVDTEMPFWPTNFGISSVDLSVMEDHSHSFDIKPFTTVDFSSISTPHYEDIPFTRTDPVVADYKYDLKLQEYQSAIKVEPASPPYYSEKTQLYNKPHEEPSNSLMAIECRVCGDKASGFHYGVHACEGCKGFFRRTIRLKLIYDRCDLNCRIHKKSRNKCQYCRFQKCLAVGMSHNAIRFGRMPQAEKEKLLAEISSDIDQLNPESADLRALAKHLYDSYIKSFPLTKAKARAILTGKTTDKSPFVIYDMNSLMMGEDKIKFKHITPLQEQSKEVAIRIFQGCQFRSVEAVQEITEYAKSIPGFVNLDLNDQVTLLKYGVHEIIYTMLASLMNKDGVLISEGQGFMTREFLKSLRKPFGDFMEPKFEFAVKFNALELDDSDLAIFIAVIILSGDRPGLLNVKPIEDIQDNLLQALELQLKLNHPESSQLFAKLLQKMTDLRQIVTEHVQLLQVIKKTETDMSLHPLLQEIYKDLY
Method: PPARγ activation assay. PPARγ activation was performed using CV-1 cells transfected with an acyl-coenzyme A oxidase-luciferase (PPRE-Acox-Rluc) reporter gene construct as previously reported. Briefly, CV-1 cells were plated in 96-well plates at a density of 1×10^4 cells per well in Dulbecco's modified Eagle's medium supplemented with 10% fetal bovine serum. The next day, the cells were transiently transfected with 125 ng of pGL3-PPRE-Acox-Rluc, 62.5 ng of pcDNA3.1 PPARγ, and 12.5 ng of pSV-β-galactosidase (Promega) using LipofectAMINE 2000 (Invitrogen). Twenty-four hours after transfection, cells were treated with OptiMEM (Invitrogen) containing 10 μM Rosiglitazone or 10 μM of the test analogue dissolved in DMSO for 20 h. Luciferase and β-galactosidase activities were measured with Steady-Glo® Luciferase Assay System (Promega) and the Galacto-Light Plus™ system (Applied Biosystems), respectively. Samples were run in quadruplicate and the mean ±standard errors were calculated. Data are representative of at least two independent transfections.

[3] = target: T3, recombinant ATX-HA (Homo sapiens, UniProt Q13822); assay: Autotaxin assay (FS-3 hydrolysis); type: biochemical; conditions: 10.0 μM, FS-3 substrate, preliminary single-dose screen; for inhibition at 10 µM: read-out: Inhibition (%) of autotaxin (ATX) phosphodiesterase activity
T3 construct: HA
Method: Autotaxin Assay. This assay utilizes FS-3 (Echelon Biosciences, Inc. Salt Lake City, Utah) as substrate and recombinant ATX-HA. For analysis, 50 μl of ATX-HA (0.25 μg) in assay buffer (Tris 50 mM, NaCl 140 mM, KCl 5mM, CaCl2 1 mM, MgCl2 1 mM, pH 8.0) was mixed with 25 μl of FS-3 (1 μM final concentration in assay buffer) and 25 μl of test compound dissolved in assay buffer containing 1:1.5 bovine serum albumin in 96-well plate. FS-3 fluorescence was monitored using FLEXstation fluorescence plate reader at a time zero and after 2 hours of incubation at 37° C. at excitation and emission wavelengths of 485 nm and 538 nm, respectively. Data was normalized to the corresponding vehicle control and the mean±standard deviation of triplicate wells were expressed as percent ATX inhibition. IC50, and Ki values were calculated as described.

[4] = target: T4, human LPA2 (Homo sapiens, UniProt Q9HBW0); assay: Ca2+ mobilization assay, LPA2; type: cell-based; conditions: for EC50: RH7777 cells stably expressing LPA2, agonist mode; for IC50: read-out: LPA2 IC50; for Ki: read-out: LPA2 (Ki)
T4 construct: expressed in transfected cells
T4 sequence (Q9HBW0 whole entry): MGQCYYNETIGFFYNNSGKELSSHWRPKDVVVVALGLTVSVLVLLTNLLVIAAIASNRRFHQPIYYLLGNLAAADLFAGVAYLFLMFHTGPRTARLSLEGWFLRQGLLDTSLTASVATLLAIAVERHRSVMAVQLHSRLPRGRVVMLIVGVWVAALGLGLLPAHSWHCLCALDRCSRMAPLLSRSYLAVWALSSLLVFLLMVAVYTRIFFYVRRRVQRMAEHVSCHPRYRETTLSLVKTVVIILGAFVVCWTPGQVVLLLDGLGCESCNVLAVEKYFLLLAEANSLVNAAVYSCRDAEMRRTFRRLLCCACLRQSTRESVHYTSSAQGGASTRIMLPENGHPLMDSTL
Method: as §1, §2
as §3, with “To determine antagonist properties, varying concentrations of the compounds were mixed with a constant concentration of LPA and responses were monitored.” left out
(§4) Receptor activation using Ca^2+ mobilization assay. The assay for mobilization of intracellular Ca^2+ was performed as described. Briefly, rat hepatoma RH7777 cells stably expressing human LPA1, LPA2, or LPA3, and CHO cells stably expressing LPA4, were loaded with Fura-2 AM (Molecular Probes). Using a FLEXStation (Molecular Devices, Sunnyvale, Calif.), changes in intracellular Ca^2+ concentration were monitored. Ligand-induced changes in fluorescence were monitored for 80-120 seconds. Ca^2+ transients were quantified automatically by calculating the difference between maximum and baseline ratio values for each sample. […] Each test was performed in quadruplicate. EC50, IC50, and Ki values were calculated as described. The ligand properties of the compounds were evaluated using Ca^2+ mobilization assay for assessing the activation/inhibition of LPA1, LPA2, and LPA3 expressed in RH7777 cells and LPA4 expressed in CHO cells.

[5] = target: T5, human LPA3 (Homo sapiens, UniProt Q9UBY5); assay: Ca2+ mobilization assay, LPA3; type: cell-based; conditions: for EC50: RH7777 cells stably expressing LPA3, agonist mode; for Emax: Emax = (maximal efficacy of compound/maximal efficacy of LPA 18:1) × 100
T5 construct: expressed in transfected cells
T5 sequence (Q9UBY5 1-353): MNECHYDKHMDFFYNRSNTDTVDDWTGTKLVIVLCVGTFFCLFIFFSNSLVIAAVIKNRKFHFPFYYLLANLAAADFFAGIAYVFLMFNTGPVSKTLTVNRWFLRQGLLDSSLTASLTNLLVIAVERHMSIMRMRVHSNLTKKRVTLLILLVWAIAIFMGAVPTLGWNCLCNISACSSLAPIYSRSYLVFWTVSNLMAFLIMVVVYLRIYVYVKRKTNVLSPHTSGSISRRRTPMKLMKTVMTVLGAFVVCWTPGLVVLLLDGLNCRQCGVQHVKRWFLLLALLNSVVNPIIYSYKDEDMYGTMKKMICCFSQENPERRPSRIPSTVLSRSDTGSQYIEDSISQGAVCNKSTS
Method: as §1, §2
as §3, with “To determine antagonist properties, varying concentrations of the compounds were mixed with a constant concentration of LPA and responses were monitored.” left out
as §4

[6] = target: T6, human LPA4 (Homo sapiens, UniProt Q99677); assay: Ca2+ mobilization assay, LPA4 in CHO cells; type: cell-based; conditions: for EC50: CHO cells stably expressing LPA4, agonist mode
T6 construct: expressed in transfected cells
T6 sequence (Q99677 whole entry): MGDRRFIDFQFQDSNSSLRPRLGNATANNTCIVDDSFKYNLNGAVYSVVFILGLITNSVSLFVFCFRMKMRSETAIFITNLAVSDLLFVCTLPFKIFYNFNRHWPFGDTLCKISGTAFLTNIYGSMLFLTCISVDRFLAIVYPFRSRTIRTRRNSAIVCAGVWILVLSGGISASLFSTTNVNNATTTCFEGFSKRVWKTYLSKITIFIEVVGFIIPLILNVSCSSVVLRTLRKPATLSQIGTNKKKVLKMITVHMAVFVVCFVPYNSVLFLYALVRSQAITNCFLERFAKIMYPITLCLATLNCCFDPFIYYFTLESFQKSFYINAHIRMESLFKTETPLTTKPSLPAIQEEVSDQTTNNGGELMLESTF
Method: as §1
Stable transformants of LPA4. CHO cells stably expressing either vector or LPA4 were plated on non-coated 96 well plates at a density of 4×10^4 cells/well and cultured overnight. The following day, cells were loaded with Fura-2 AM for 1 h in modified Krebs buffer containing 2% (v/v) pluronic acid and 2.5 mM probenecid.
as §3, with “To determine antagonist properties, varying concentrations of the compounds were mixed with a constant concentration of LPA and responses were monitored.” left out
as §4

[7] = antagonist mode vs 10 nM LPA, PA = partial antagonist

| EC50 [1] | IC50 [1] | PPARγ (PPRE luciferase reporter gene assay) [2] | Inhibition (%) of autotaxin (ATX) phosphodiesterase activity [3] | Ki [1] | EC50 [4] | IC50 [4, 7] | Ki ([4]; antagonist mode vs 10 nM LPA) | EC50 [5] | Ki ([5]; antagonist mode vs 200 nM LPA, read-out: LPA3 (Ki)) | IC50 ([5]; read-out: LPA3 IC50) | EC50 [6] | inhibition at 30 µM ([6]; CHO, read-out: LPA4 inhibition of 400 nM LPA response) | inhibition at 10 µM [3] | Emax ([1]; Emax = (maximal efficacy of compound/maximal efficacy of LPA 18:1) × 100) | IC50 ([4]; antagonist of the LPA2 receptor) | Emax [5] | Emax ([6]; CHO, Emax = (maximal efficacy of compound/maximal efficacy of LPA 18:1) × 100) | IC50 [6] | Ki ([6]; antagonist mode vs 400 nM LPA) | SMILES |
| --- | --- | --- | --- | --- | --- | --- | --- | --- | --- | --- | --- | --- | --- | --- | --- | --- | --- | --- | --- | --- |
| 100 ± 13.2 nM | > 30000 nM | Ago- | 88.4 ± 1.3% | – | – | – | – | – | – | – | – | – | – | – | – | – | – | – | – | CCCCCCCC/C=C\CCCCCCCC(=O)OC[C@@H](O)COP(=O)(O)O [LPA (18:1), reference compound] |
| > 30000 nM | 2490 ± 690 nM | – | – | 919 nM | > 30000 nM | 855 nM | 428 nM | > 30000 nM | 98.3 nM | 175 nM | > 30000 nM | 80% | 83 ± 2.1% | – | – | – | – | – | – | CCCCCCCCCCCCCCCC(=O)OC[C@@H](O)CC(Cl)P(=O)(O)O (mixture of isomers) [Compound 18b, [1-Chloro-3(S)-hydroxyl-4-(palmitoyloxy)butyl]-phosphonate] |
| 528 nM | > 30000 nM | – | – | – | > 30000 nM | 1690 ± 85 nM | 845 nM | > 2670 nM | – | – | 3480 ± 561 nM | – | 92.5 ± 2.1% | 63.2% | 1700 nM | 63.5% | 40.5% | – | – | CCCCCCCC/C=C\CCCCCCCC(=O)OC[C@@H](O)CC(Cl)P(=O)(O)O (mixture of isomers) [Compound 18a, [1-Chloro-3(S)-hydroxyl-4-(oleoyloxy)butyl]-phosphonate] |
| > 30000 nM | 1620 ± 116 nM | – | 90.7 ± 2.3% | 694 nM | > 30000 nM | 815 ± 60 nM | 174 nM | > 2470 nM | – | – | > 30000 nM | – | > 90% | – | – | 44.2% | – | 4000 ± 424 nM | 2500 nM | CCCCCCCC/C=C\CCCCCCCC(=O)OC[C@@H](O)CC(Br)P(=O)(O)O (mixture of isomers) [Compound 19a, [1-Bromo-3(S)-hydroxyl-4-(oleoyloxy)butyl]-phosphonate] |
| – | – | – | 78.5 ± 2.3% | – | – | – | – | – | – | – | – | – | – | – | – | – | – | – | – | CCCCCC/C=C\CCCCCCCC(=O)OCC1COP(=O)(O)C1 (stereo not drawn) [2ccPA (16:1), 2-carba cyclic phosphatidic acid 16:1, reference compound] |
| > 30000 nM | > 30000 nM | – | 43.4% | – | > 30000 nM | – | – | > 30000 nM | – | – | > 30000 nM | – | – | – | – | – | – | – | – | CCCCCCCCCCCCCCCC(=O)OCC(O)CC(O)P(=O)([O-])O.[Na+] (stereo not drawn) [Compound 24b, reference compound] |
| > 30000 nM | > 30000 nM | – | 56.6% | – | > 30000 nM | – | – | > 30000 nM | – | – | > 30000 nM | – | – | – | – | – | – | – | – | CCCCCCCCCCCCCCCC(=O)OCC(O)CC(O)P(=O)([O-])O.[Na+] (stereo not drawn) [Compound 24a, reference compound] |
